Experimental findings from patent US20250235460A1, “COMBINATION THERAPY USING GLUCOSE-DEPENDENT INSULINOTROPIC POLYPEPTIDE RECEPTOR ANTAGONIST COMPOUNDS AND GLP-1 RECEPTOR AGONIST COMPOUNDS” (Pfizer Inc., priority 2024, published 2025) are described below.

In general, EC50 refers to the midpoint of the concentration-response curve. A high value points to weaker potency. Usually Emax stands for the greatest response seen or fitted, relative to the assay's reference.

In the assay the target is human GLP-1R (Homo sapiens, UniProt P43220, G168S). As to the kind of experiment: CHO GLP-1R Clone H6 cAMP HTRF agonist assay (Assay 1, high receptor density). In kind it is cell-based. Particulars: for EC50: CHO GLP-1R clone H6, cAMP HTRF, geometric mean; for Emax: CHO GLP-1R clone H6, arithmetic mean, relative to saturating GLP-1 (1 μM), read-out: Assay 1 Emax (%). An excerpt:
In Table 5 and Table 6, assay data are presented to two (2) significant figures as the geometric mean (EC50s) and arithmetic mean (Emax) based on the number of replicates listed (Number). A blank cell means there was no data for that Example or the Emax was not calculated.
Background: In TR-FRET formats the signal depends on donor and acceptor labels being close together.

Where only a bound is given, the exact number is not on record here.

Chain of human GLP-1R (P43220 24-463 G168S): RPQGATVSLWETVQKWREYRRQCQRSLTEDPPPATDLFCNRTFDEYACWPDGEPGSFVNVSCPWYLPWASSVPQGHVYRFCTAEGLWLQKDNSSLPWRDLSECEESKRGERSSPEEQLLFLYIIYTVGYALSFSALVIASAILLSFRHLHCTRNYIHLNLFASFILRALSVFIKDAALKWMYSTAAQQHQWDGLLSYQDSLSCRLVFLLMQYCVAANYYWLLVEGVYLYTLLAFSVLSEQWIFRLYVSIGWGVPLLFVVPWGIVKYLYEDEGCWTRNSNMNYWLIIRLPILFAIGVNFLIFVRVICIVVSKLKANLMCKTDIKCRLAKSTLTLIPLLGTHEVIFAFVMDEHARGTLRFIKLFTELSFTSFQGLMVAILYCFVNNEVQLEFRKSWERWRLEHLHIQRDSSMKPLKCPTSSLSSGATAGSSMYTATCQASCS

Turning to `O=C(O)c1ccc2nc(CN3CCC(c4cccc(OCc5ccc(Cl)cc5F)n4)CC3)n(CC3CCOCC3)c2c1` [Compound 324B, 2-[(4-{6-[(4-chloro-2-fluorobenzyl)oxy]pyridin-2-yl}piperidin-1-yl)methyl]-1-(tetrahydro-2H-pyran-4-ylmethyl)-1H-benzimidazole-6-carboxylic acid], the EC50 was determined as 1.9 µM and the maximal effect (Emax) was 79%. On the same counts, the results for `Cn1cc(CCn2c(CN3CCC(c4cccc(OCc5ccc(Cl)cc5F)n4)CC3)nc3ccc(C(=O)O)cc32)cn1` [Compound 307B, 2-[(4-{6-[(4-chloro-2-fluorobenzyl)oxy]pyridin-2-yl}piperidin-1-yl)methyl]-1-[2-(1-methyl-1H-pyrazol-4-yl)ethyl]-1H-benzimidazole-6-carboxylic acid] are 0.21 µM and 77%. On the same counts, the results for `COCCn1c(CN2CCC(c3cccc(OCc4ccc(C#N)cc4)n3)CC2)nc2ccc(C(=O)O)c(F)c21` [Compound 169B, 2-[(4-{6-[(4-cyanobenzyl)oxy]pyridin-2-yl}piperidin-1-yl)methyl]-7-fluoro-1-(2-methoxyethyl)-1H-benzimidazole-6-carboxylic acid] are 1.2 µM and 78%. The like results for `COCCn1c(CN2CCC(c3cccc(OCc4ccccc4)n3)CC2)nc2ccc(C(=O)O)cc21` [Compound 181B, 2-({4-[6-(benzyloxy)pyridin-2-yl]piperidin-1-yl}methyl)-1-(2-methoxyethyl)-1H-benzimidazole-6-carboxylic acid] were, in that order, 0.17 µM and 68%.

As for `Cc1nc(C(C)n2c(CN3CCC(c4cccc(OCc5ccc(Cl)cc5F)n4)CC3)nc3ccc(C(=O)O)cc32)n[nH]1` (stereo not drawn) [Compound 342B, 2-[(4-{6-[(4-chloro-2-fluorobenzyl)oxy]pyridin-2-yl}piperidin-1-yl)methyl]-1-[1-(5-methyl-1H-1,2,4-triazol-3-yl)ethyl]-1H-benzimidazole-6-carboxylic acid], the EC50 was found to be 1.3 µM and the Emax turned out to be 42%. As to `COCCn1c(CN2CCN(c3ccc(F)c(OCc4ccc(Cl)cc4F)n3)CC2C)nc2ccc(C(=O)O)cc21` (stereo in doubt) [Compound 174B, 2-{[(2S)-4-{6-[(4-chloro-2-fluorobenzyl)oxy]-5-fluoropyridin-2-yl}-2-methylpiperazin-1-yl]methyl}-1-(2-methoxyethyl)-1H-benzimidazole-6-carboxylic acid], the EC50 worked out at 0.87 µM. This lies in the sub-micromolar range. Take `CN1CCOC(Cn2c(CN3CCC(c4cccc(OCc5ccc(Cl)cc5F)n4)CC3)nc3ccc(C(=O)O)cc32)C1` (stereo not drawn) [Compound 338B, 2-[(4-{6-[(4-chloro-2-fluorobenzyl)oxy]pyridin-2-yl}piperidin-1-yl)methyl]-1-[(4-methylmorpholin-2-yl)methyl]-1H-benzimidazole-6-carboxylic acid]: the EC50 was over 20 µM. As to `Cn1ncnc1Cn1c(CN2CCC(c3cccc(OCc4ccc(Cl)cc4F)n3)CC2)nc2ccc(C(=O)O)cc21` [Compound 308B, 2-[(4-{6-[(4-chloro-2-fluorobenzyl)oxy]pyridin-2-yl}piperidin-1-yl)methyl]-1-[(1-methyl-1H-1,2,4-triazol-5-yl)methyl]-1H-benzimidazole-6-carboxylic acid], the EC50 worked out at 0.29 µM and the Emax is 74%. Turning to `CC(F)(F)Cn1c(CN2CCC(c3cccc(OCc4ccc(Cl)cc4F)n3)CC2)nc2ccc(C(=O)O)cc21` [Compound 302B, 2-[(4-{6-[(4-chloro-2-fluorobenzyl)oxy]pyridin-2-yl}piperidin-1-yl)methyl]-1-(2,2-difluoropropyl)-1H-benzimidazole-6-carboxylic acid], the EC50 was 0.13 µM and the maximal response (Emax) came to 80%. In the case of `O=C(O)c1ccc2nc(CN3CCC(c4cccc(OCc5ccc(Cl)cc5F)n4)CC3)n(C[C@H]3CCOC3)c2c1` [Compound 121B, 2-[(4-{6-[(4-chloro-2-fluorobenzyl)oxy]pyridin-2-yl}piperidin-1-yl)methyl]-1-[(3R)-tetrahydrofuran-3-ylmethyl]-1H-benzimidazole-6-carboxylic acid], the EC50 is over 20 µM. Turning to `N#Cc1ccc(COc2cccc(C3CCN(Cc4nc5ccc(C(=O)O)cc5n4C[C@@H]4CCO4)CC3)n2)cc1` [Compound 130B, 2-[(4-{6-[(4-cyanobenzyl)oxy]pyridin-2-yl}piperidin-1-yl)methyl]-1-[(2S)-oxetan-2-ylmethyl]-1H-benzimidazole-6-carboxylic acid], the EC50 is over 11 µM and the Emax worked out at 84%. In the case of `O=C(O)c1ccc2nc(CN3CCC(c4cccc(OCc5ccc(Cl)cc5F)n4)CC3)n(CC3CCCCO3)c2c1` (stereo not drawn) [Compound 323B, 2-[(4-{6-[(4-chloro-2-fluorobenzyl)oxy]pyridin-2-yl}piperidin-1-yl)methyl]-1-(tetrahydro-2H-pyran-2-ylmethyl)-1H-benzimidazole-6-carboxylic acid], the EC50 worked out at 1.6 µM and the Emax is 80%.

Take `Cn1c(CN2CCC(c3cccc(OCc4c(F)cccc4F)n3)CC2)nc2ccc(C(=O)O)cc21` [Compound 224B, 2-[(4-{6-[(2,6-difluorobenzyl)oxy]pyridin-2-yl}piperidin-1-yl)methyl]-1-methyl-1H-benzimidazole-6-carboxylic acid]: the 50% effective concentration (EC50) was 1.2 µM and the Emax amounted to 53%. On to `O=C(O)c1ccc2nc(CN3CCC(c4cccc(OCc5ccc(Cl)cc5F)n4)CC3)n(CCN3CCCOC3=O)c2c1` [Compound 305B, 2-[(4-{6-[(4-chloro-2-fluorobenzyl)oxy]pyridin-2-yl}piperidin-1-yl)methyl]-1-[2-(2-oxo-1,3-oxazinan-3-yl)ethyl]-1H-benzimidazole-6-carboxylic acid], for which the 50% effective concentration (EC50) worked out at 0.19 µM and the Emax was determined as 86%. The compound `O=C(O)c1ccc2nc(CN3CCC(c4cccc(OCc5ccc(Cl)cc5F)n4)CC3)n(Cc3ncon3)c2c1` [Compound 271B, 2-[(4-{6-[(4-chloro-2-fluorobenzyl)oxy]pyridin-2-yl}piperidin-1-yl)methyl]-1-(1,2,4-oxadiazol-3-ylmethyl)-1H-benzimidazole-6-carboxylic acid] yielded an EC50 of over 20 µM. With `CN1CCC[C@@H]1Cn1c(CN2CCC(c3cccc(OCc4ccc(Cl)cc4F)n3)CC2)nc2ccc(C(=O)O)cc21` [Compound 309B, 2-[(4-{6-[(4-chloro-2-fluorobenzyl)oxy]pyridin-2-yl}piperidin-1-yl)methyl]-1-{[(2R)-1-methylpyrrolidin-2-yl]methyl}-1H-benzimidazole-6-carboxylic acid], the 50% effective concentration (EC50) came out at 0.3 µM and the Emax is 66%. Consider `COCc1cc(Cn2c(CN3CCC(c4cccc(OCc5ccc(Cl)cc5F)n4)CC3)nc3ccc(C(=O)O)cc32)[nH]n1` [Compound 337B, 2-[(4-{6-[(4-chloro-2-fluorobenzyl)oxy]pyridin-2-yl}piperidin-1-yl)methyl]-1-{[3-(methoxymethyl)-1H-pyrazol-5-yl]methyl}-1H-benzimidazole-6-carboxylic acid], for which it took 0.56 µM to reach a half-maximal effect (EC50) and the Emax stood at 72%.

Turning to `COCCn1c(CN2CCN(c3cccc(OCc4ccc(C#N)cc4F)n3)C[C@@H]2C)nc2ccc(C(=O)O)cc21` [Compound 173B, 2-{[(2S)-4-{6-[(4-cyano-2-fluorobenzyl)oxy]pyridin-2-yl}-2-methylpiperazin-1-yl]methyl}-1-(2-methoxyethyl)-1H-benzimidazole-6-carboxylic acid], it took 2.7 µM to reach a half-maximal effect (EC50) and the maximal response (Emax) came out at 85%.

Take `Cc1noc(CCn2c(CN3CCC(c4cccc(OCc5ccc(Cl)cc5F)n4)CC3)nc3ccc(C(=O)O)cc32)n1` [Compound 304B, 2-[(4-{6-[(4-chloro-2-fluorobenzyl)oxy]pyridin-2-yl}piperidin-1-yl)methyl]-1-[2-(3-methyl-1,2,4-oxadiazol-5-yl)ethyl]-1H-benzimidazole-6-carboxylic acid]: the EC50 was 0.19 µM and the Emax came out at 74%. The like results for `O=C(O)c1ccc2nc(CN3CCC(c4cccc(OCc5ccc(Cl)cc5F)n4)CC3)n(C[C@H]3CCCO3)c2c1` [Compound 343B, 2-[(4-{6-[(4-chloro-2-fluorobenzyl)oxy]pyridin-2-yl}piperidin-1-yl)methyl]-1-[(2R)-tetrahydrofuran-2-ylmethyl]-1H-benzimidazole-6-carboxylic acid] were, in that order, 0.51 µM and 64%. Turning to `Cc1cc(Cn2c(CN3CCC(c4cccc(OCc5ccc(Cl)cc5F)n4)CC3)nc3ccc(C(=O)O)cc32)no1` [Compound 310B, 2-[(4-{6-[(4-chloro-2-fluorobenzyl)oxy]pyridin-2-yl}piperidin-1-yl)methyl]-1-[(5-methyl-1,2-oxazol-3-yl)methyl]-1H-benzimidazole-6-carboxylic acid], the response was half-maximal at 0.32 µM (EC50) and the Emax was determined as 79%. Compound `O=C(O)c1ccc2nc(CN3CCC(c4cccc(OCc5ccc(Cl)cc5F)n4)CC3)n(Cc3cnoc3)c2c1` [Compound 270B, 2-[(4-{6-[(4-chloro-2-fluorobenzyl)oxy]pyridin-2-yl}piperidin-1-yl)methyl]-1-(1,2-oxazol-4-ylmethyl)-1H-benzimidazole-6-carboxylic acid] gave a 50% effective concentration (EC50) of over 20 µM. As for `COCCn1c(CN2CCN(c3cccc(OCc4ccc(Cl)cc4F)n3)C[C@@H]2C2CC2)nc2ccc(C(=O)O)cc21` [Compound 350B, 2-{[(2S)-4-{6-[(4-chloro-2-fluorobenzyl)oxy]pyridin-2-yl}-2-cyclopropylpiperazin-1-yl]methyl}-1-(2-methoxyethyl)-1H-benzimidazole-6-carboxylic acid], the EC50 was 0.42 µM and the maximal effect (Emax) stood at 81%. `Cn1cc(Cn2c(CN3CCC(c4cccc(OCc5ccc(Cl)cc5F)n4)CC3)nc3ccc(C(=O)O)cc32)cn1` [Compound 318B, 2-[(4-{6-[(4-chloro-2-fluorobenzyl)oxy]pyridin-2-yl}piperidin-1-yl)methyl]-1-[(1-methyl-1H-pyrazol-4-yl)methyl]-1H-benzimidazole-6-carboxylic acid]: the EC50 is 0.52 µM.
